Laboratory results: US9199945B2, “Cycloalkyl-substituted pyrimidinedione compounds” (MyoKardia, Inc., priority 2013, dated 2015)
pIC50: −log10 of the molar value.

target: T1, bovine cardiac myosin (Bos taurus, UniProt Q9BE39); experiment: Myosin inhibition assay (PK/LDH-coupled ATPase, bovine cardiac myofibrils); type: biochemical; conditions: calcium concentration giving 50% activation (pCa50), read-out: Biochemical Activity (pCa50)
T1 construct: The source of cardiac myosin was from bovine heart in the form of skinned myofibrils; from tissue; host or cells: bovine heart (skinned myofibrils)
Procedure: Small molecule agents were assessed for their ability to inhibit the enzymatic activity of bovine cardiac myosin using a biochemical assay that couples the release of ADP (adenosine diphosphate) from cardiac myosin to an enzymatic coupling system consisting of pyruvate kinase and lactate dehydrogenase (PK/LDH) and monitoring the absorbance decrease of NADH (at 340 nm) as a function of time. PK converts ADP to ATP (adenosine triphosphate) by converting PEP (phosphoenolpyruvate) to pyruvate. Pyruvate is then converted to lactate by LDH by converting NADH (nicotinamide adenine dinucleotide) to NAD (oxidized nicotinamide adenine dinucleotide). The source of cardiac myosin was from bovine heart in the form of skinned myofibrils. Prior to testing small molecule agents, the bovine myofibrils were assessed for their calcium responsiveness and the calcium concentration that achieves either a 50% (pCa50) or 75% (pCa75) activation of the myofibril system was chosen as the final condition for assessing the inhibitory activity of the small molecule agents. All enzymatic activity was measured in a buffered solution containing 12 mM PIPES (piperazine-N,N′-bis(2-ethanesulfonic acid), 2 mM magnesium chloride at pH 6.8 (PM12 buffer). Final assay conditions were 1 mg/mL of bovine cardiac myofibrils, 0.4 mM PK/LDH, 50 uM ATP, 0.1 mg/mL BSA (bovine serum albumin), 10 ppm antifoam, 1 mM DTT, 0.5 mM NADH, 1.5 mM PEP at the desired free calcium concentration required to achieve either 50% or 75% activation of the myofibrils.
A dilution series of compound was created in DMSO such that the final desired concentration of compound would be achieved in a volume of 100 μL with a fixed DMSO concentration of 2% (v/v). Typically 2 μL of the dilution series were added to 96 well plate to achieve an 8 or 12 point dose response. Following the addition of 50 μL of a solution containing bovine cardiac myofibrils, PK/LDH and a solution of calcium (that achieved the desired activation), the enzymatic reaction was started with the addition of 50 μL of a solution containing ATP, PEP and NADH. The reaction progress was followed in a Molecular Devices M5e plate reader at ambient temperature using clear half area plates. The plate reader was configured to read absorbance at 340 nm in kinetics mode for 15 minutes. Data were recorded as the slope of the absorbance response to time. The slopes of the absorbance response as a function of time were normalized to slopes on the plate containing DMSO. This normalized rate was then plotted as a function of small molecule concentration and the data was fitted to a four-parameter fit using GraphPad Prism. The midpoint of this plot is the IC50 and is the concentration at which fifty percent of the total response is inhibited.

T1 sequence (Q9BE39 whole entry): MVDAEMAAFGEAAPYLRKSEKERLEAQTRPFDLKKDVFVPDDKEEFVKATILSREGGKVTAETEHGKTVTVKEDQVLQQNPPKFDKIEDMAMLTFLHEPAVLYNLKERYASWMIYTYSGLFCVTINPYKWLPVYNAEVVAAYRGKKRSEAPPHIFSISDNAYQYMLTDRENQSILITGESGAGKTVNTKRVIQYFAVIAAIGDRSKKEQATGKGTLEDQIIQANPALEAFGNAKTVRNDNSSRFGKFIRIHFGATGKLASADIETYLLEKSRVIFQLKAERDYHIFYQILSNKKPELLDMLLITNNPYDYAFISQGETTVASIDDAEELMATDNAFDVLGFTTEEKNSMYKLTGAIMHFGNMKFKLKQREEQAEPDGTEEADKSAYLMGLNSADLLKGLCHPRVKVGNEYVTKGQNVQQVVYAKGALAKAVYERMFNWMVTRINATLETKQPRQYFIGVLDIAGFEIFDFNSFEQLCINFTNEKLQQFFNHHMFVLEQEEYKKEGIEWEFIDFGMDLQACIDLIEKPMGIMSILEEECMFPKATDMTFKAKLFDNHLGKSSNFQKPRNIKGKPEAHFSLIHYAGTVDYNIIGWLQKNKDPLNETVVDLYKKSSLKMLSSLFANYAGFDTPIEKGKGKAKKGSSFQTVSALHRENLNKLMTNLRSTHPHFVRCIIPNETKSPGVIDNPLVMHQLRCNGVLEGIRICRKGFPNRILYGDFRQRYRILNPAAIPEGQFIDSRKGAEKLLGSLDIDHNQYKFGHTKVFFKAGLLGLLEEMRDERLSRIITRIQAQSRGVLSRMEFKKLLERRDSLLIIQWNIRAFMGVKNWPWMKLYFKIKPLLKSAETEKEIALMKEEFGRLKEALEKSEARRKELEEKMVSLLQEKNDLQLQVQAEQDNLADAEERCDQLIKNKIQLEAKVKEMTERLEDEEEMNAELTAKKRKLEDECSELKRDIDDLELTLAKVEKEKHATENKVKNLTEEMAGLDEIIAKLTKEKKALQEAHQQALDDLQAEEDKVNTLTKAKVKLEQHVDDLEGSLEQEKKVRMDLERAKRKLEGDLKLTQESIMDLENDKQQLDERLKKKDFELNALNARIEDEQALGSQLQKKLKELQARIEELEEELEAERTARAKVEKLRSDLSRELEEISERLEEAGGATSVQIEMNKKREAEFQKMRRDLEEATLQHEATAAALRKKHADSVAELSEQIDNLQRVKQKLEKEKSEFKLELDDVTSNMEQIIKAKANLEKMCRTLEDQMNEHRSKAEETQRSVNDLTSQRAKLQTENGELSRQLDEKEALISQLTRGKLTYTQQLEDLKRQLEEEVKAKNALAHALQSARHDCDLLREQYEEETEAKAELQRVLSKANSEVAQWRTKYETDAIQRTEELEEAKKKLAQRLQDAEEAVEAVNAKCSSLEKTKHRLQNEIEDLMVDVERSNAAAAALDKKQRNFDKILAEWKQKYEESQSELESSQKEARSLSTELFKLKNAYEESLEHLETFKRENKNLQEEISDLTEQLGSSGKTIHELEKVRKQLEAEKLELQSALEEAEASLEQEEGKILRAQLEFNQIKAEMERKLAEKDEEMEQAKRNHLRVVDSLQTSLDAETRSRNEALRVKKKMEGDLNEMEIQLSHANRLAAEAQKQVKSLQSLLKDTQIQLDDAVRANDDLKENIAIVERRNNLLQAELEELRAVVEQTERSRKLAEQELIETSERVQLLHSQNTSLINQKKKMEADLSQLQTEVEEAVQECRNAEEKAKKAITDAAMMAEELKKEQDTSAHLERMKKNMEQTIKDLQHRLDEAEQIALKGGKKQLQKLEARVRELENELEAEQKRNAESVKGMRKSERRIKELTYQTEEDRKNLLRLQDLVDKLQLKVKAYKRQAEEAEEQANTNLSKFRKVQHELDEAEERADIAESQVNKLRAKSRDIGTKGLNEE
T1 sequence (P85100 whole entry partner): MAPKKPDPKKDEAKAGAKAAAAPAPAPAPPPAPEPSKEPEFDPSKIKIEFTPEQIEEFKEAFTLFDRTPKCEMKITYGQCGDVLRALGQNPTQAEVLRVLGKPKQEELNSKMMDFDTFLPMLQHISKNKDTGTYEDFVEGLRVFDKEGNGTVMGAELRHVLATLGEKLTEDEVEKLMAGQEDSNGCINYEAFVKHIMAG
T1 sequence (Q3SZE5 whole entry partner): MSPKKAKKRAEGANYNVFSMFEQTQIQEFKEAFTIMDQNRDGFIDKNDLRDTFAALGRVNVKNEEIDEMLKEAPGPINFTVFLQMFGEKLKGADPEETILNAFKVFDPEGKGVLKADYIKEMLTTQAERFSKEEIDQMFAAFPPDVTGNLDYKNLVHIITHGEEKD

| Compound | pIC50 |
| --- | --- |
| C[C@@H](CC1CCC(F)(F)CC1)Nc1cc(=O)n(-c2cc(F)cc(F)c2)c(=O)[nH]1 [Compound 11, (S)-6-((1-(4,4-difluorocyclohexyl)propan-2-yl)amino)-3-(3,5-difluorophenyl)pyrimidine-2,4(1H,3H)-dione] | > 6.00 |
| C[C@@H](CC1CC(F)(F)C1)Nc1cc(=O)n(-c2cc(F)cc(F)c2)c(=O)[nH]1 [Compound 12, (S)-6-((1-(3,3-difluorocyclobutyl)propan-2-yl)amino)-3-(3,5-difluorophenyl)pyrimidine-2,4(1H,3H)-dione] | 4.82 to 6.00 |

same assay, conditions: calcium concentration giving 75% activation (pCa75), read-out: Biochemical Activity (pCa75)

| Compound | pIC50 |
| --- | --- |
| CC(C)n1c(=O)cc(N[C@@H](C)CC2CC(F)(F)C2)[nH]c1=O [Compound 10, (S)-6-((1-(3,3-difluorocyclobutyl)propan-2-yl)amino)-3-isopropylpyrimidine-2,4(1H,3H)-dione] | 4.82 to 6.00 |
| CC(C)n1c(=O)cc(NCC2CCCC2)[nH]c1=O [Compound 2, 6-((Cyclopentylmethyl)amino)-3-isopropylpyrimidine-2,4(1H,3H)-dione] | < 4.82 |
| CC(C)n1c(=O)cc(NCC2CCC2)[nH]c1=O [Compound 7, 6-((cyclobutylmethyl)amino)-3-isopropylpyrimidine-2,4(1H,3H)-dione] | < 4.82 |
| C[C@H](Nc1cc(=O)n(C2CCOCC2)c(=O)[nH]1)C1CCC(F)(F)CC1 [Compound 4, (S)-6-((1-(4,4-difluorocyclohexyl)ethyl)amino)-3-(tetrahydro-2H-pyran-4-yl)pyrimidine-2,4(1H,3H)-dione] | 4.82 to 6.00 |
| CC(C)n1c(=O)cc(N[C@@H](C)CC2CCOCC2)[nH]c1=O [Compound 14, (S)-3-isopropyl-6-((1-(tetrahydro-2H-pyran-4-yl)propan-2-yl)amino)pyrimidine-2,4(1H,3H)-dione] | 4.82 to 6.00 |
| CC(C)n1c(=O)cc(N[C@@H](C)C2CCCCC2)[nH]c1=O [Compound 6, (S)-6-((1-cyclohexylethyl)amino)-3-isopropylpyrimidine-2,4(1H,3H)-dione] | > 6.00 |
| CC(C)n1c(=O)cc(NCCC2CCOCC2)[nH]c1=O [Compound 13, 3-isopropyl-6-((2-(tetrahydro-2H-pyran-4-yl)ethyl)amino) pyrimidine-2,4(1H,3H)-dione] | < 4.82 |
| C[C@H](Nc1cc(=O)n(C2CCN(S(C)(=O)=O)CC2)c(=O)[nH]1)C1CCCCC1 [Compound 15, (S)-6-((1-cyclohexylethyl)amino)-3-(1-(methylsulfonyl)piperidin-4-yl)pyrimidine-2,4(1H,3H)-dione] | > 6.00 |
| CC(C)n1c(=O)cc(N[C@@H](C)CC2CCC(F)(F)CC2)[nH]c1=O [Compound 3, (S)-6-((1-(4,4-Difluorocyclohexyl)propan-2-yl)amino)-3-isopropylpyrimidine-2,4(1H,3H)-dione] | > 6.00 |
| CC(C)n1c(=O)cc(NCC2CCCCC2)[nH]c1=O [Compound 1, 6-((cyclohexylmethyl)amino)-3-isopropylpyrimidine-2,4(1H,3H)-dione] | 4.82 to 6.00 |
| CC(C)n1c(=O)cc(NCC2CCCCCC2)[nH]c1=O [Compound 8, 6-((cycloheptylmethyl)amino)-3-isopropylpyrimidine-2,4(1H,3H)-dione] | > 6.00 |
| CC(C)n1c(=O)cc(N[C@@H](C)C2CCC(F)(F)CC2)[nH]c1=O [Compound 9, (S)-6-((1-(4,4-difluorocyclohexyl)ethyl)amino)-3-isopropylpyrimidine-2,4(1H,3H)-dione] | > 6.00 |
| CC(C)n1c(=O)[nH]c(N[C@@H](C)C2CCC(F)(F)CC2)c(F)c1=O [Compound 5, (S)-6-((1-(4,4-difluorocyclohexyl)ethyl)amino)-5-fluoro-3-isopropylpyrimidine-2,4(1H,3H)-dione] | > 6.00 |

system: adult rat ventricular myocytes; experiment: Cardiomyocyte contractility assay (fractional shortening, IonOptix edge detection); type: cell-based; conditions: Ventricular myocyte, 0.3 uM compound, 1 Hz pacing
Procedure: Contractility of adult rat ventricular myocytes is determined by edge detection with an IonOptix contractility system. Aliquots of myocytes in Tyrode buffer (137 mM NaCl, 3.7 mM KCl, 0.5 mM MgCl2, 1.5 mM CaCl2, 4 mM HEPES, 11 mM glucose) are placed in a perfusion chamber (Series 20 RC-27NE; Warner Instruments), allowed to adhere to the coverslip, and then perfused with 37° C. Tyrode buffer. Myocytes are filed stimulated at 1 Hz and 10V. Only myocytes with clear striations, quiescent prior to pacing, with a cell length of 120-180 microns, a basal fractional shortening equal to 3-8% of the cell length, and a contraction velocity greater than 100 microns per second are used for contractility experiments. To determine the response to compounds, myocytes are first perfused for 60 seconds with Tyrodes buffer followed by 5 minutes of compound and a 140 second washout with Tyrodes buffer. Data is continuously recorded using IonOptix software. Contractility data is analyzed using lonwizard software (IonOptix). For each cell, 10-20 contractility transients were averaged and compared under basal (no compound) and compound-treated conditions. Compound activity is measured by effects on fractional shortening (FS), where fractional shortening is the ratio of the peak length of the cell at contraction divided by the basal cell length normalized to 100% for an untreated cell.

| Compound | inhibition at 0.3 µM [%] |
| --- | --- |
| CC(C)n1c(=O)cc(N[C@@H](C)CC2CCC(F)(F)CC2)[nH]c1=O [Compound 3, (S)-6-((1-(4,4-Difluorocyclohexyl)propan-2-yl)amino)-3-isopropylpyrimidine-2,4(1H,3H)-dione] | > 66 |

same assay, conditions: Ventricular myocyte, 1.0 uM compound, 1 Hz pacing

| Compound | inhibition at 1 µM [%] |
| --- | --- |
| CC(C)n1c(=O)cc(N[C@@H](C)C2CCC(F)(F)CC2)[nH]c1=O [Compound 9, (S)-6-((1-(4,4-difluorocyclohexyl)ethyl)amino)-3-isopropylpyrimidine-2,4(1H,3H)-dione] | > 66 |
| CC(C)n1c(=O)[nH]c(N[C@@H](C)C2CCC(F)(F)CC2)c(F)c1=O [Compound 5, (S)-6-((1-(4,4-difluorocyclohexyl)ethyl)amino)-5-fluoro-3-isopropylpyrimidine-2,4(1H,3H)-dione] | 33 to 66 |
